Measured values from patent publication US20240034737A1, “Heterocyclic Derivatives as P2X7 Receptor Antagonists” (BREYE THERAPEUTICS APS, priority 2020, published 2024).

What was measured:
P2X7 receptor = P2X7 receptor (Homo sapiens (Human), UniProt Q99572); assay: Human P2X7 channel calcium-influx assay (Fluo-8 NW, FLIPR TETRA, Bz-ATP stimulation); assay type: cell-based; conditions: HEK-293 cells stably transfected with P2X7 receptor, Low Divalent Cation Assay Buffer, read-out: hP2X7 IC50
Description: (§1) Extracellular binding of Bz-ATP to P2X7 receptor opens the channel and allows Ca^2+ influx into the cells. This Ca^2+ entry was measured in HEK-293 cells stably transfected with P2X7 receptor using Screen Quest™ Fluo-8 No Wash Calcium Assay Kit (AAt Bioquest®, cat. 36316). Once inside the cell, the lipophilic blocking groups of Fluo-8 are cleaved by non-specific cell esterases, resulting in a negatively-charged fluorescent dye that stays inside cells. Its fluorescence increases upon binding to calcium. When HEK-293/P2X7 cells are stimulated with Bz-ATP, Ca^2+ enters the cells and the fluorescence of Fluo-8 NW increases.
(§2) HEK-293 cells stably transfected with P2X7 receptor were seeded overnight in growth medium at 10,000 to 20,000 cells/well in 384-well plate. 24 hours later, the medium was removed, and the cells were pre-loaded at RT for 1 hour with 20 μL/w of Fluo-8 NW. Then 10 μL/w of test compounds and reference antagonist A438079 at 3X-concentration were injected with the […] and the kinetic response over a period of five minutes was monitored.

mP2X7 = mP2X7 (Mus musculus (Mouse), UniProt Q9Z1M0); assay: mP2X7 channel calcium-influx assay (Fluo-8 NW, FLIPR TETRA, Bz-ATP stimulation); assay type: cell-based
Sequence of mP2X7 (Q9Z1M0 whole entry): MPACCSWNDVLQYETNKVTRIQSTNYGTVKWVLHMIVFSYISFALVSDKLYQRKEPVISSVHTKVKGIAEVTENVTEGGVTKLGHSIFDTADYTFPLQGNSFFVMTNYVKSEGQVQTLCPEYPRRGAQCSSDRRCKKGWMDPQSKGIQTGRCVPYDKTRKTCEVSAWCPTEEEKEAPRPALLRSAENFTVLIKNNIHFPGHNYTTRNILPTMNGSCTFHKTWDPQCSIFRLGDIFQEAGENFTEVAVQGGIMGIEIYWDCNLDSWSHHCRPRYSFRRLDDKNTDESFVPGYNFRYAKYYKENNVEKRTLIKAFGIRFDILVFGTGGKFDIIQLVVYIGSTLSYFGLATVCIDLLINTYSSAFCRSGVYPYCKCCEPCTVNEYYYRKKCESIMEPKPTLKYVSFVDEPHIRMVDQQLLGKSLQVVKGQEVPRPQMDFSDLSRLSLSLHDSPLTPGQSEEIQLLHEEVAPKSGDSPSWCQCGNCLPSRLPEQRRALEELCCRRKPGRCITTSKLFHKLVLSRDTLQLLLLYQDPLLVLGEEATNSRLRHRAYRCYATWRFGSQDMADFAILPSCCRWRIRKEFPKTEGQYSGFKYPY
Description: as §1, §2

Sequence of P2X7 receptor (Q99572 whole entry): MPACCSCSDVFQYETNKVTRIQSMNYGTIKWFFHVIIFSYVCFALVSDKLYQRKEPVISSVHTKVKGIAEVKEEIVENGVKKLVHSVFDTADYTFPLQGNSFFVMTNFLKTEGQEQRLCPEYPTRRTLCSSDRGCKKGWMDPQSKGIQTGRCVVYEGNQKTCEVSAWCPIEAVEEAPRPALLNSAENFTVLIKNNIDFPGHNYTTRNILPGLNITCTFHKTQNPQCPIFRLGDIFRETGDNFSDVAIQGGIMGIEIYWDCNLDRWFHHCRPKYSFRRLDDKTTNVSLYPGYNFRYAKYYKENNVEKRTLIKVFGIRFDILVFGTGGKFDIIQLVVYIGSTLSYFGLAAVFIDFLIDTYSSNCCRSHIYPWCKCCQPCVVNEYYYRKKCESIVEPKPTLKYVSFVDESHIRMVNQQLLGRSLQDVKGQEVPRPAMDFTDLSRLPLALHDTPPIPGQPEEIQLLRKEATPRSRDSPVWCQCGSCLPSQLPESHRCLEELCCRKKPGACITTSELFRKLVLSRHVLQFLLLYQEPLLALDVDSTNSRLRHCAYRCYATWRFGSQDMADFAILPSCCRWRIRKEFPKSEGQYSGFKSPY

N#Cc1cnccc1OCC1CCN(C(CNC(=O)c2c(F)cccc2Cl)c2scnc2C(F)F)CC1 (stereo not shown) [Example 122, 2-Chloro-N-[2-(4-{[(3-cyanopyridin-4-yl)oxy]methyl}piperidin-1-yl)-2-[4-(difluoromethyl)-1,3-thiazol-5-yl]ethyl]-6-fluorobenzamide]
IC50 (P2X7 receptor): 39.6 nM
IC50 (mP2X7): 44.2 nM

Cc1cccnc1OCC1CCN(C(CNC(=O)c2c(F)cccc2Cl)c2scnc2C(F)F)CC1 (stereo not shown) [Example 99, 2-Chloro-N-{2-[4-(difluoromethyl)-1,3-thiazol-5-yl]-2-(4-{[(3-methylpyridin-2-yl)oxy]methyl}piperidin-1-yl)ethyl}-6-fluorobenzamide]
IC50 (P2X7 receptor): 22.8 nM
IC50 (mP2X7): 15.2 nM

O=C(NCC(c1scnc1C(F)F)N1CCC(COc2ccc(F)cn2)CC1)c1c(F)cccc1Cl (stereo not shown) [Example 102, 2-Chloro-N-{2-[4-(difluoromethyl)-1,3-thiazol-5-yl]-2-(4-{[(5-fluoropyridin-2-yl)oxy]methyl}piperidin-1-yl)ethyl}-6-fluorobenzamide]
IC50 (P2X7 receptor): 32 nM
IC50 (mP2X7): 33.8 nM

Cc1nsc(OC2CCN(C(CNC(=O)c3c(F)cccc3Cl)c3scnc3C(F)F)CC2)c1C#N (stereo not shown) [Example 53, 2-Chloro-N-(2-{4-[(4-cyano-3-methyl-1,2-thiazol-5-yl)oxy]piperidin-1-yl}-2-[4-(difluoromethyl)-1,3-thiazol-5-yl]ethyl)-6-fluorobenzamide]
IC50 (P2X7 receptor): 41.5 nM
IC50 (mP2X7): 38.7 nM

N#Cc1ncccc1OC1CCN(C(CNC(=O)c2c(F)cccc2Cl)c2scnc2C(F)F)CC1 (stereo not shown) [Example 18, 2-Chloro-N-(2-{4-[(2-cyanopyridin-3-yl)oxy]piperidin-1-yl}-2-[4-(difluoromethyl)-1,3-thiazol-5-yl]ethyl)-6-fluorobenzamide]
IC50 (P2X7 receptor): 41.1 nM
IC50 (mP2X7): 186 nM

O=C(NCC(c1scnc1C(F)F)N1CCC(Oc2nccn3nccc23)CC1)c1c(F)cccc1Cl (stereo not shown) [Example 44, 2-Chloro-N-{2-[4-(difluoromethyl)-1,3-thiazol-5-yl]-2-(4-{pyrazolo[1,5-a]pyrazin-4-yloxy}piperidin-1-yl)ethyl}-6-fluorobenzamide]
IC50 (P2X7 receptor): 27.9 nM
IC50 (mP2X7): 30.6 nM

Cc1cccc(OCC2CCN(C(CNC(=O)c3c(F)cccc3Cl)c3scnc3C(F)F)CC2)n1 (stereo not shown) [Example 88, 2-Chloro-N-{2-[4-(difluoromethyl)-1,3-thiazol-5-yl]-2-(4-{[(6-methylpyridin-2-yl)oxy]methyl}piperidin-1-yl)ethyl}-6-fluorobenzamide]
IC50 (P2X7 receptor): 27.8 nM
IC50 (mP2X7): 25.2 nM

O=C(NCC(c1scnc1C(F)F)N1CCC(COc2nccc(C(F)(F)F)n2)CC1)c1c(F)cccc1Cl (stereo not shown) [Example 114, 2-Chloro-N-{2-[4-(difluoromethyl)-1,3-thiazol-5-yl]-2-[4-({[4-(trifluoromethyl)pyrimidin-2-yl]oxy}methyl)piperidin-1-yl]ethyl}-6-fluorobenzamide]
IC50 (P2X7 receptor): 50.7 nM
IC50 (mP2X7): 37.2 nM

Cc1ccnc(OCC2CCN(C(CNC(=O)c3c(F)cccc3Cl)c3scnc3C(F)F)CC2)c1 (stereo not shown) [Example 89, 2-Chloro-N-{2-[4-(difluoromethyl)-1,3-thiazol-5-yl]-2-(4-{[(4-methylpyridin-2-yl)oxy]methyl}piperidin-1-yl)ethyl}-6-fluorobenzamide]
IC50 (P2X7 receptor): 29.2 nM
IC50 (mP2X7): 24.1 nM

N#Cc1ncccc1OCC1CCN(C(CNC(=O)c2c(F)cccc2Cl)c2scnc2C(F)F)CC1 (stereo not shown) [Example 90, 2-Chloro-N-[2-(4-{[(2-cyanopyridin-3-yl)oxy]methyl}piperidin-1-yl)-2-[4-(difluoromethyl)-1,3-thiazol-5-yl]ethyl]-6-fluorobenzamide]
IC50 (P2X7 receptor): 20 nM
IC50 (mP2X7): 25.7 nM

O=C(NCC(c1scnc1C(F)F)N1CCC(Oc2ccccn2)CC1)c1c(F)cccc1Cl (stereo not shown) [Example 1, 2-chloro-N-{2-[4-(difluoromethyl)-1,3-thiazol-5-yl]-2-[4-(pyridin-2-yloxy)piperidin-1-yl]ethyl}-6-fluorobenzamide]
IC50 (P2X7 receptor): 21.7 nM
IC50 (mP2X7): 53.5 nM

O=C(NCC(c1scnc1C(F)F)N1CCC(COc2cncc3nncn23)CC1)c1c(F)cccc1Cl (stereo not shown) [Example 118, 2-Chloro-N-{2-[4-(difluoromethyl)-1,3-thiazol-5-yl]-2-[4-({[1,2,4]triazolo[4,3-a]pyrazin-5-yloxy}methyl)piperidin-1-yl]ethyl}-6-fluorobenzamide]
IC50 (P2X7 receptor): 214 nM
IC50 (mP2X7): 256 nM

O=C(NCC(c1scnc1C(F)F)N1CCC(COc2cc(F)ccn2)CC1)c1c(F)cccc1Cl (stereo not shown) [Example 126, 2-chloro-N-{2-[4-(difluoromethyl)-1,3-thiazol-5-yl]-2-(4-{[(4-fluoropyridin-2-yl)oxy]methyl}piperidin-1-yl)ethyl}-6-fluorobenzamide]
IC50 (P2X7 receptor): 36.5 nM
IC50 (mP2X7): 34.7 nM

Cc1c(F)ncnc1OCC1CCN(C(CNC(=O)c2c(F)cccc2Cl)c2scnc2C(F)F)CC1 (stereo not shown) [Example 113, 2-Chloro-N-{2-[4-(difluoromethyl)-1,3-thiazol-5-yl]-2-(4-{[(6-fluoro-5-methylpyrimidin-4-yl)oxy]methyl}piperidin-1-yl)ethyl}-6-fluorobenzamide]
IC50 (P2X7 receptor): 38.5 nM
IC50 (mP2X7): 17.5 nM

O=C(NCC(c1scnc1C(F)F)N1CCC(Oc2cccc(F)n2)CC1)c1c(F)cccc1Cl (stereo not shown) [Example 72, 2-Chloro-N-{2-[4-(difluoromethyl)-1,3-thiazol-5-yl]-2-{4-[(6-fluoropyridin-2-yl)oxy]piperidin-1-yl}ethyl}-6-fluorobenzamide]
IC50 (P2X7 receptor): 11.9 nM
IC50 (mP2X7): 29.4 nM

O=C(NCC(c1scnc1C(F)F)N1CCC(COc2ccn3nccc3n2)CC1)c1c(F)cccc1Cl (stereo not shown) [Example 117, 2-Chloro-N-{2-[4-(difluoromethyl)-1,3-thiazol-5-yl]-2-[4-({pyrazolo[1,5-a]pyrimidin-5-yloxy}methyl)piperidin-1-yl]ethyl}-6-fluorobenzamide]
IC50 (P2X7 receptor): 48.2 nM
IC50 (mP2X7): 35.8 nM

COc1nccc(OC2CCN(C(CNC(=O)c3c(F)cccc3Cl)c3scnc3C(F)F)CC2)n1 (stereo not shown) [Example 63, 2-Chloro-N-{2-[4-(difluoromethyl)-1,3-thiazol-5-yl]-2-{4-[(2-methoxypyrimidin-4-yl)oxy]piperidin-1-yl}ethyl}-6-fluorobenzamide]
IC50 (P2X7 receptor): 41.2 nM
IC50 (mP2X7): 49.3 nM

Cc1cnc(OC2CCN(C(CNC(=O)c3c(F)cccc3Cl)c3scnc3C(F)F)CC2)nc1 (stereo not shown) [Example 28, 2-Chloro-N-{2-[4-(difluoromethyl)-1,3-thiazol-5-yl]-2-{4-[(5-methylpyrimidin-2-yl)oxy]piperidin-1-yl}ethyl}-6-fluorobenzamide]
IC50 (P2X7 receptor): 64.4 nM
IC50 (mP2X7): 206 nM

O=C(NCC(c1scnc1C(F)F)N1CCC(Oc2nc3ccccc3o2)CC1)c1c(F)cccc1Cl (stereo not shown) [Example 22, N-{2-[4-(1,3-Benzoxazol-2-yloxy)piperidin-1-yl]-2-[4-(difluoromethyl)-1,3-thiazol-5-yl]ethyl}-2-chloro-6-fluorobenzamide]
IC50 (P2X7 receptor): 20.5 nM
IC50 (mP2X7): 12.3 nM

O=C(NCC(c1scnc1C(F)F)N1CCC(Oc2ccnc(F)n2)CC1)c1c(F)cccc1Cl (stereo not shown) [Example 35, 2-Chloro-N-{2-[4-(difluoromethyl)-1,3-thiazol-5-yl]-2-{4-[(2-fluoropyrimidin-4-yl)oxy]piperidin-1-yl}ethyl}-6-fluorobenzamide]
IC50 (P2X7 receptor): 71.1 nM
IC50 (mP2X7): 190 nM

Cc1nnc2c(OC3CCN(C(CNC(=O)c4c(F)cccc4Cl)c4scnc4C(F)F)CC3)nccn12 (stereo not shown) [Example 52, 2-Chloro-N-{2-[4-(difluoromethyl)-1,3-thiazol-5-yl]-2-[4-({3-methyl-[1,2,4]triazolo[4,3-a]pyrazin-8-yl}oxy)piperidin-1-yl]ethyl}-6-fluorobenzamide]
IC50 (P2X7 receptor): 274 nM
IC50 (mP2X7): 571 nM

Cc1nc(F)cc(OC2CCN(C(CNC(=O)c3c(F)cccc3Cl)c3scnc3C(F)F)CC2)n1 (stereo not shown) [Example 39, 2-Chloro-N-{2-[4-(difluoromethyl)-1,3-thiazol-5-yl]-2-{4-[(6-fluoro-2-methylpyrimidin-4-yl)oxy]piperidin-1-yl}ethyl}-6-fluorobenzamide]
IC50 (P2X7 receptor): 51.1 nM
IC50 (mP2X7): 44.6 nM

O=C(NCC(c1scnc1C(F)F)N1CCC(Oc2cccnn2)CC1)c1c(F)cccc1Cl (stereo not shown) [Example 71, 2-Chloro-N-{2-[4-(difluoromethyl)-1,3-thiazol-5-yl]-2-[4-(pyridazin-3-yloxy)piperidin-1-yl]ethyl}-6-fluorobenzamide]
IC50 (P2X7 receptor): 58.9 nM
IC50 (mP2X7): 222 nM

COc1ccnc(OC2CCN(C(CNC(=O)c3c(F)cccc3Cl)c3scnc3C(F)F)CC2)n1 (stereo not shown) [Example 64, 2-Chloro-N-{2-[4-(difluoromethyl)-1,3-thiazol-5-yl]-2-{4-[(4-methoxypyrimidin-2-yl)oxy]piperidin-1-yl}ethyl}-6-fluorobenzamide]
IC50 (P2X7 receptor): 65.8 nM
IC50 (mP2X7): 209 nM

N#Cc1ccncc1OC1CCN(C(CNC(=O)c2c(F)cccc2Cl)c2scnc2C(F)F)CC1 (stereo not shown) [Example 38, 2-Chloro-N-(2-{4-[(4-cyanopyridin-3-yl)oxy]piperidin-1-yl}-2-[4-(difluoromethyl)-1,3-thiazol-5-yl]ethyl)-6-fluorobenzamide]
IC50 (P2X7 receptor): 57.5 nM
IC50 (mP2X7): 79.6 nM

Cc1cnc(F)nc1OC1CCN(C(CNC(=O)c2c(F)cccc2Cl)c2scnc2C(F)F)CC1 (stereo not shown) [Example 55, 2-Chloro-N-{2-[4-(difluoromethyl)-1,3-thiazol-5-yl]-2-{4-[(2-fluoro-5-methylpyrimidin-4-yl)oxy]piperidin-1-yl}ethyl}-6-fluorobenzamide]
IC50 (P2X7 receptor): 22.9 nM
IC50 (mP2X7): 34 nM
